Common to all, as to experiment: biochemical
Type in all cases: biochemical

Assay [1] has as its target various kinases (Homo sapiens, UniProt Q9HCP0). Conditions: CSNK1G1 (CK1 gamma 1).
The target of assay [2] is various kinases (Homo sapiens, UniProt Q14164). Conditions: IKBKE (IKK epsilon).
The target of assay [3] is various kinases (Homo sapiens, UniProt Q8IW41). The settings on record: MAPKAPK5 (PRAK).
In assay [4] the target is various kinases (Homo sapiens, UniProt P54753). The settings on record: EPHB3.
The target in assay [5] is various kinases (Homo sapiens, UniProt Q12866). Conditions: MERTK (cMER).
Assay [6] addresses T1, various kinases (Homo sapiens, UniProt Q13043).
T1 sequence (Q13043 1-487): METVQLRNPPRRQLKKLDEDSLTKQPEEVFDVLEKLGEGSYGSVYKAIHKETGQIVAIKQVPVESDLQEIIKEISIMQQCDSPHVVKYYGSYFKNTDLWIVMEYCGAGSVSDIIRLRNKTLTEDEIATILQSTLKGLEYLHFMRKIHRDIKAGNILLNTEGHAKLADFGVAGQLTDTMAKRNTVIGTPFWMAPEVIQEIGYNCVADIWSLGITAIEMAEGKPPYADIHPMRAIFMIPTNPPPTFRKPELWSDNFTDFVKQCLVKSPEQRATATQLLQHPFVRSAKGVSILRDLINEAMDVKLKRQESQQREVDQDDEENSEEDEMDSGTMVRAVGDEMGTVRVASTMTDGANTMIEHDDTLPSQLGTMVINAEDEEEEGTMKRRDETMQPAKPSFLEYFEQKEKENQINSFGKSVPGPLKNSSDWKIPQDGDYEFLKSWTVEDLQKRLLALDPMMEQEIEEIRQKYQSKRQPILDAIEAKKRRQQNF
Conditions: kinase STK4 (MST1); ZLYTE.

Assay [7] concerns the target various kinases (Homo sapiens, UniProt Q16644). Conditions: MAPKAPK3.
In assay [8] the target is various kinases (Homo sapiens, UniProt P00519, F317I). Conditions: ABL1 F317I.
The target of assay [9] is various kinases (Homo sapiens, UniProt P06493). Conditions: CDK1/cyclin B.
The target of assay [10] is various kinases (Homo sapiens, UniProt Q52WX2). The settings on record: kinase SBK1; ZLYTE.
In assay [11] the target is T2, various kinases (Homo sapiens, UniProt Q06418).
T2 sequence (Q06418 41-890): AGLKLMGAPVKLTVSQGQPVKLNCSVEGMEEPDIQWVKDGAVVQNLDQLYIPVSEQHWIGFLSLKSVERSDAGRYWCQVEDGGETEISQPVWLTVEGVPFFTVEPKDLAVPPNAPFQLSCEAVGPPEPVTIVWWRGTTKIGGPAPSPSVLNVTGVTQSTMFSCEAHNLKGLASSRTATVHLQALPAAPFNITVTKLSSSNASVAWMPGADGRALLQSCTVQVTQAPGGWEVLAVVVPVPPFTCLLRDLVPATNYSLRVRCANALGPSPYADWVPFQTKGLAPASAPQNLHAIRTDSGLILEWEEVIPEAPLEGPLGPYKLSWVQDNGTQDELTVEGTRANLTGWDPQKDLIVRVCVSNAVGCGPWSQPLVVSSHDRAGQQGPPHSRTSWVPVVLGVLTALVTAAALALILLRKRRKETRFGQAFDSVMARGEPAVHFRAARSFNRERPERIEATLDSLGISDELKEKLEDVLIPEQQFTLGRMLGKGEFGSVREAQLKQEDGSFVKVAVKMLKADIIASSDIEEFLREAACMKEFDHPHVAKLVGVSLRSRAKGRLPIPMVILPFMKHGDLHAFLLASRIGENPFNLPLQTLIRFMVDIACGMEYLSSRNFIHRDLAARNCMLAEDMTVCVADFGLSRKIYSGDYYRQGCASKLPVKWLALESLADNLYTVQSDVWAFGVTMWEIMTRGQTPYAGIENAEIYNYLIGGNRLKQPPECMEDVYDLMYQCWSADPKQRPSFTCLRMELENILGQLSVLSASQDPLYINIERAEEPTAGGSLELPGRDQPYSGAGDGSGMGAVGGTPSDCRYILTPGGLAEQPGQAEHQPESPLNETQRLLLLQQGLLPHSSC
The settings on record: kinase TYRO3 (RSE); ZLYTE.

Assay [12] deals with various kinases (Homo sapiens, UniProt P68400). Conditions: CSNK2A1 (CK2 alpha 1).
Assay [13] has as its target various kinases (Homo sapiens, UniProt P07332). Conditions: FES (FPS).
In assay [14] the target is various kinases (Homo sapiens, UniProt P45984). Conditions: MAPK9 (JNK2).
Assay [15] has as its target various kinases (Homo sapiens, UniProt P32298). The settings on record: GRK4.
In assay [16] the target is various kinases (Homo sapiens, UniProt Q86V86). Conditions: PIM3.

Where “and” joins values, the source holds several entries; their conditions need not be identical. Equal entries are not always repeated.
For % Inhibition Average in this document: test concentration or dose not given here.
For % Inhibition Duplicate #1 in this document: test concentration or dose not given here.
For % Inhibition Duplicate #2 in this document: test concentration or dose not given here.

various kinases (Homo sapiens, UniProt Q52WX2), sequence (Q52WX2 whole entry): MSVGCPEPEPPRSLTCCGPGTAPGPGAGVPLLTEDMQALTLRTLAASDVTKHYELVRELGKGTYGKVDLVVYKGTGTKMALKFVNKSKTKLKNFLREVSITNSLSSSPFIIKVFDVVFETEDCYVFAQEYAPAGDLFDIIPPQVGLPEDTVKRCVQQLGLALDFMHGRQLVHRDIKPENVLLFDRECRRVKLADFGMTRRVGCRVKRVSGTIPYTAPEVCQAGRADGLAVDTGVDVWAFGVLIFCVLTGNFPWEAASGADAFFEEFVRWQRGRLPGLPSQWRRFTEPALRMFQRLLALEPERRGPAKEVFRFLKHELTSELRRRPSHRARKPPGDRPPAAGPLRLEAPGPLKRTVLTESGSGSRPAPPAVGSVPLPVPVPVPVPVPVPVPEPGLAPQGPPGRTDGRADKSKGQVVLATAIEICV
various kinases (Homo sapiens, UniProt Q9HCP0), sequence (Q9HCP0 whole entry): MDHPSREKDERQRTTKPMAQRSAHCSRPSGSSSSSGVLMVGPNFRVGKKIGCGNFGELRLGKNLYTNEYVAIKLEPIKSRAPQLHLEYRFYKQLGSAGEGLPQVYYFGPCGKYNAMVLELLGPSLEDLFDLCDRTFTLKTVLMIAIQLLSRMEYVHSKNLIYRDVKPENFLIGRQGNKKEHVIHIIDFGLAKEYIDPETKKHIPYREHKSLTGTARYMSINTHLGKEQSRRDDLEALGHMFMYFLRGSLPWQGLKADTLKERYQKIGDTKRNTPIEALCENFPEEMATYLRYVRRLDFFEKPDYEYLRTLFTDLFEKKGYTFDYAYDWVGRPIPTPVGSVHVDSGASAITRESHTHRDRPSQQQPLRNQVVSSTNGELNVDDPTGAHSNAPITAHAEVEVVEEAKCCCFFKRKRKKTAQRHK
various kinases (Homo sapiens, UniProt Q8IW41), sequence (Q8IW41 whole entry): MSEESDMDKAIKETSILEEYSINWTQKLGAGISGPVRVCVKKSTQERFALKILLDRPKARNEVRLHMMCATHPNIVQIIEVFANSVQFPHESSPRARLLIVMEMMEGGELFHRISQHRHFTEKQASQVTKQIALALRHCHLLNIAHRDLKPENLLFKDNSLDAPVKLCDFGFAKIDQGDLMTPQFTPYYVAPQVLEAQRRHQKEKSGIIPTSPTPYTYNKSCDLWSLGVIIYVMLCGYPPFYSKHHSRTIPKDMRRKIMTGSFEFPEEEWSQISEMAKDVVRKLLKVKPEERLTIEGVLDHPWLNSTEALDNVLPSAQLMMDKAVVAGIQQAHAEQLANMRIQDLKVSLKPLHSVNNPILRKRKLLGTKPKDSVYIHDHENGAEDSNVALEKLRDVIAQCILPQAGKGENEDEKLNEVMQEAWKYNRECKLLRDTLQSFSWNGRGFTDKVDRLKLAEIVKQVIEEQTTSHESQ
various kinases (Homo sapiens, UniProt P32298), sequence (P32298 whole entry): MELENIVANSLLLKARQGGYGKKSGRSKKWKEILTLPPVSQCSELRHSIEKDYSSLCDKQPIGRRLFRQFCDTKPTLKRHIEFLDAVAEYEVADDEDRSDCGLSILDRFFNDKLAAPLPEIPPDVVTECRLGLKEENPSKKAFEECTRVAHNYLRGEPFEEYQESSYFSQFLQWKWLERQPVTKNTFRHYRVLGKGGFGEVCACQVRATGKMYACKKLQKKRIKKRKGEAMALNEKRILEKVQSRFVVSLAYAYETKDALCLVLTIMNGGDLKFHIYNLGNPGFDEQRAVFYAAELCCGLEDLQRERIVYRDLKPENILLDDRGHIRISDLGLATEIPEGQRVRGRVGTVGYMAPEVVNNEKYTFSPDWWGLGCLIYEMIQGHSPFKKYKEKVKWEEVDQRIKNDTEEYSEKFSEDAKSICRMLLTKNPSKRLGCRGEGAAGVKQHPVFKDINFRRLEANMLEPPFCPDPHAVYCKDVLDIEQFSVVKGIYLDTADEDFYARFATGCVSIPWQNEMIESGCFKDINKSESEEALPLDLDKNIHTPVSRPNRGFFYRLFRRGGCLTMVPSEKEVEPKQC
various kinases (Homo sapiens, UniProt P54753), sequence (P54753 34-998): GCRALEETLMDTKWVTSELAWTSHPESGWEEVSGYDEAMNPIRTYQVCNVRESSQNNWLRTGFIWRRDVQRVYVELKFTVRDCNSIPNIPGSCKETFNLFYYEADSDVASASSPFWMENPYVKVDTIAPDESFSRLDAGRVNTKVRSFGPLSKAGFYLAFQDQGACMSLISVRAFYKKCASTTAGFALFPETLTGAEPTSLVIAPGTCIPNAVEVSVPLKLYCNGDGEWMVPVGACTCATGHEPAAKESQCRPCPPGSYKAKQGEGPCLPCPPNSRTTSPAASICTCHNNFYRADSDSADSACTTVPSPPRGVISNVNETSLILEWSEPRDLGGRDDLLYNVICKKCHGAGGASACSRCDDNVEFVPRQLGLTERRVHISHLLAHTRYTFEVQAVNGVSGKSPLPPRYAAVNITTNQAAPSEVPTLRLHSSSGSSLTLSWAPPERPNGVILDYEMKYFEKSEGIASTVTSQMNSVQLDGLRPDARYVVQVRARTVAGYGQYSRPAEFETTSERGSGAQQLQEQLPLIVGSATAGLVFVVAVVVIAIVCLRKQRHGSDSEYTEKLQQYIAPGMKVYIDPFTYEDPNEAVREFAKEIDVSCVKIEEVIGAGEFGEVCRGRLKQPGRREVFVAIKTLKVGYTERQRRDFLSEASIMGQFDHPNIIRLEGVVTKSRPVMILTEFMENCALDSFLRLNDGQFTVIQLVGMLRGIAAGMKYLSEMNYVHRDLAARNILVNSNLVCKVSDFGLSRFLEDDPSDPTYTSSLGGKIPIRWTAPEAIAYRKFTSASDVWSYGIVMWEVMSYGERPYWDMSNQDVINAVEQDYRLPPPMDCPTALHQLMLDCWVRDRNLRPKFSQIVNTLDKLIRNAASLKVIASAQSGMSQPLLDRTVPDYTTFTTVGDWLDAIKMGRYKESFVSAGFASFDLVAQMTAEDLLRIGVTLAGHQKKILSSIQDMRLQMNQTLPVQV
various kinases (Homo sapiens, UniProt Q16644), sequence (Q16644 whole entry): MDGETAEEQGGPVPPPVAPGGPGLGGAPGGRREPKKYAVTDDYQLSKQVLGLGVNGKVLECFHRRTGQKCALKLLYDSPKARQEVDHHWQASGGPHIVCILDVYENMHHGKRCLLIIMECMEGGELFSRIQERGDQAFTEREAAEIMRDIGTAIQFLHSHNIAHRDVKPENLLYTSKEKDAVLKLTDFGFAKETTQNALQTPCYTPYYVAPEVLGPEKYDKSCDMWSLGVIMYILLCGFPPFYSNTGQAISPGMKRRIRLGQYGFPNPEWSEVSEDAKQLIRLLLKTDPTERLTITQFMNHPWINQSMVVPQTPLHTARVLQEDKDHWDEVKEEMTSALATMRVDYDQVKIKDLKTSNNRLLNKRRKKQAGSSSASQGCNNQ
various kinases (Homo sapiens, UniProt Q14164), sequence (Q14164 whole entry): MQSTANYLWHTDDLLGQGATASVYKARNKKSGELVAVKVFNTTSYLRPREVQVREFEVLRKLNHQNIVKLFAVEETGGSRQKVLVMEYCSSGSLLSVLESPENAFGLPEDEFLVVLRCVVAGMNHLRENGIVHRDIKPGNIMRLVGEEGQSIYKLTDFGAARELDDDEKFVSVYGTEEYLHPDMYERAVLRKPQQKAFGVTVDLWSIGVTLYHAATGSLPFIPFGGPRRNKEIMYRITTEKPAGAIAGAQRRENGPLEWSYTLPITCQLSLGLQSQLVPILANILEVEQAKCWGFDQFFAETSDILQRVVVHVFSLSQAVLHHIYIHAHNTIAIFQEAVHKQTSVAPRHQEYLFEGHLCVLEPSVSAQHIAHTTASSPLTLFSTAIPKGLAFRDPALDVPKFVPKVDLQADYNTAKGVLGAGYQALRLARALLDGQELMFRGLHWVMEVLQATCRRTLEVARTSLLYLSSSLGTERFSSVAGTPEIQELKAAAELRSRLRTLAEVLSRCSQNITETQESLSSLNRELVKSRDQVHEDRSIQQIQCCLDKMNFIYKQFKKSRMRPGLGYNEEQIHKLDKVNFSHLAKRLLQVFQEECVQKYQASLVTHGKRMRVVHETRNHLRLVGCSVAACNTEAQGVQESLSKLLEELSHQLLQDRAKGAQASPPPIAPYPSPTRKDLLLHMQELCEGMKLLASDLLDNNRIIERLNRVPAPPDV
various kinases (Homo sapiens, UniProt P06493), sequence (P06493 whole entry): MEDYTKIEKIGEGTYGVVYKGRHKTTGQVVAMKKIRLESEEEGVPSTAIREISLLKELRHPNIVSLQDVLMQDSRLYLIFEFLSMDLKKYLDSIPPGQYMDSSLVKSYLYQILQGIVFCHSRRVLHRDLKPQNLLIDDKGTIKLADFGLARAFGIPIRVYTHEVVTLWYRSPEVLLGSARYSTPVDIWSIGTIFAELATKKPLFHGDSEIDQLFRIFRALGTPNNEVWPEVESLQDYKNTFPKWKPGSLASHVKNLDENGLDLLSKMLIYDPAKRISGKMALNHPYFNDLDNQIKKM
various kinases (Homo sapiens, UniProt P68400), sequence (P68400 whole entry): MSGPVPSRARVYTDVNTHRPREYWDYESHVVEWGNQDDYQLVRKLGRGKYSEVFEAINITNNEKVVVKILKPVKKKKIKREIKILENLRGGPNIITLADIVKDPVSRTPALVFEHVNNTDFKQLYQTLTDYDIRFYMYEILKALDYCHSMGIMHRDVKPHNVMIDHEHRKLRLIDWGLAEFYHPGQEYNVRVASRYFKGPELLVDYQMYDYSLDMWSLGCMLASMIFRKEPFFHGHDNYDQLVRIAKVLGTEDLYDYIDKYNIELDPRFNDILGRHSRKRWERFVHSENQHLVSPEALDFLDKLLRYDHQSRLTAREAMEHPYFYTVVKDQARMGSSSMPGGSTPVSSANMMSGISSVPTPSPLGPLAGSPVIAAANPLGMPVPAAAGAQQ

For `COc1ccc2c(c1)[C@]1(C[C@H]1c1ccc3c(/C=C/c4ccc(CN5C[C@@H](C)O[C@@H](C)C5)cc4)n[nH]c3c1)C(=O)N2` [CFI-400945], the % Inhibition (usually the relative decrease from the control value, in per cent) is -1% and 3% at various kinases [1]; -1% and 1% on various kinases [2]; 2% and 4% on various kinases [3]; 3% and 2% on various kinases [4]; -2% and 1% on various kinases [5]; 2% and -4% at various kinases [7]. Moreover, the “% Inhibition” value at various kinases [8] is 4% and 5%; on various kinases [9] it was 16% and 12%; at various kinases [12], 9% and 4%; on various kinases [13] it was 13% and 10%; at various kinases [14] it was 9% and -1%; on various kinases [15], 1% and -1%. For the same compound, the “% Inhibition” value on various kinases [16] is -1% and 0%. The entries for the “% Inhibition Average” value on various kinases [6], at various kinases [10] and at various kinases [11] were 23%, 0% and 10%, respectively. The “% Inhibition Duplicate #1” value is 22% on various kinases [6], -1% at various kinases [10] and 10% on various kinases [11]. Besides, the “% Inhibition Duplicate #2” value at various kinases [6] is recorded as 24%; on various kinases [10], 2%; at various kinases [11], 11%.

These data come from PMC5762315, “Inhibition of polo-like kinase 4 (PLK4): a new therapeutic option for rhabdoid tumors and pediatric medulloblastoma” (Oncotarget, 2017).
